# Data: article PMC8958505, “Discovery of Potential Neuroprotective Agents against Paclitaxel-Induced Peripheral Neuropathy” (Journal of Medicinal Chemistry, 2022)
# Counter-ions that a name gives are not always drawn.
# Tests used:
# Purinergic P2X = assay: LeadProfilingScreen: Purinergic P2X; format: binding, rat; conditions: 10 μM
# Imidazoline I2, Central = assay: LeadProfilingScreen: Imidazoline I2, Central; format: binding, rat; conditions: 10 μM
# [1] = molecular target: Transporter, Dopamine (DAT) (Homo sapiens, UniProt Q01959); assay: LeadProfilingScreen: Transporter, Dopamine (DAT); format: binding
# CYP 2E1 = molecular target: T1, CYP 2E1 (Homo sapiens, UniProt P05181); assay: Cytochrome P450 testing, CYP 2E1; format: in vitro ADME; conditions: chlorzoxazone 6-hydroxylation; read-out: Concentration of inhibition (IC50), CYP 2E1
# T1 construct: host or cells: baculovirus-infected insect cells (supersomes)
# Text: Cytochrome P450 testing of CN016
# The effects of CN016 on the activity of six specific human liver cytochrome P450 isozymes (CYP 1A2, 2C9, 2C19, 2D6, 2E1, 3A4) expressed in baculovirus-infected insect cell supersomes were studied. The reactions used to measure the activity of these enzymes were phenacetin O-deethylation (1A2), diclofenac 4-hydroxylation (2C9), mephenytoin 4-hydroxylation (2C19), dextromethorphan O-demethylation (2D6), chlorzoxazone 6-hydroxylation (2E1) and testosterone 6-hydroxylation (3A4).
# Furafylline, sulfaphenazole, tranylcypromine, quinidine, diethyldithiocarbamate and azamulin were used as reference inhibitors of these enzymes. Incubation mixtures containing no CN016 or reference inhibitors were used as controls. The tested result […]
# Table S4. Result of Cytochrome P450 testing of CN016
# Chain of Transporter, Dopamine (DAT) (Q01959 whole entry): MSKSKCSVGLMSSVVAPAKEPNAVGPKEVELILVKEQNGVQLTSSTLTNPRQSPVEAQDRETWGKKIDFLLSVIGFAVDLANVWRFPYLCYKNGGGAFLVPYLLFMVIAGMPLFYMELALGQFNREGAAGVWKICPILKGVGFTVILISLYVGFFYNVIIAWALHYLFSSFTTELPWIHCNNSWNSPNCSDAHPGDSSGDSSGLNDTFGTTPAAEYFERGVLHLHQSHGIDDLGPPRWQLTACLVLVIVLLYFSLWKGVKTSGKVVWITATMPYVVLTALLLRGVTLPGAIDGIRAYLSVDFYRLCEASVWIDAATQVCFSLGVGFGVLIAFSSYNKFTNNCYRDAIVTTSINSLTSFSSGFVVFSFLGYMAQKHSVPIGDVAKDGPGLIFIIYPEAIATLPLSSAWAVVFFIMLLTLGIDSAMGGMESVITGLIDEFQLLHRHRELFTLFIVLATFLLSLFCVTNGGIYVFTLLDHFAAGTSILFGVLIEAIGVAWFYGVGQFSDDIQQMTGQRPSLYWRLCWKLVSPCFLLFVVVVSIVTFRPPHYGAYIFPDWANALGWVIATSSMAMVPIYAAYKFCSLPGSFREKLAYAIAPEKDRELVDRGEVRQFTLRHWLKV
# T1 sequence (P05181 whole entry): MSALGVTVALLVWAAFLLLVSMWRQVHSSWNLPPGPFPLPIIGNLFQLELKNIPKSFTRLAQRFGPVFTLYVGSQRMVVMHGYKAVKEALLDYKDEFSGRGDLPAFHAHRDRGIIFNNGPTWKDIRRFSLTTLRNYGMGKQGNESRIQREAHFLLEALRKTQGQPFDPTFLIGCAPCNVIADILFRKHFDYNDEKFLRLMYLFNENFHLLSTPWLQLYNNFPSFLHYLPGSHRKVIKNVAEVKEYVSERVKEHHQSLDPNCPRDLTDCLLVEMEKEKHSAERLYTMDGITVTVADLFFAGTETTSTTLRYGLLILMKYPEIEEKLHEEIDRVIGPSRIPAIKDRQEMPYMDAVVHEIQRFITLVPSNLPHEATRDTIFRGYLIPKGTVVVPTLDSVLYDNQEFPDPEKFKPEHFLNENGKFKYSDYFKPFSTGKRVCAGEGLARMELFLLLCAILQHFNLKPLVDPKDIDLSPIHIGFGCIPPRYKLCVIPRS
compound,measurement,setting,value
"O=P(O)(O)CCN1CCC(Nc2cc(N3CCOCC3)nc(NCc3cn(CCCO)nn3)n2)CC1 [CN016, {2-[4-(2-{[1-(3-Hydroxy-propyl)-1H-[1,2,3]triazol-4-ylmethyl]-amino}-6-morpholin-4-yl-pyrimidin-4-ylamino)-piperidin-1-yl]-ethyl}-phosphonic Acid Hydrobromide Salt]","Inhibition (%), Purinergic P2X",Purinergic P2X,-9%
same,"Inhibition (%), Imidazoline I2, Central","Imidazoline I2, Central",-5%
same,inhibition at 10 µM,[1],0%
same,IC50,CYP 2E1,> 100 µM
